Where “and” joins values, the source holds several entries; their conditions need not be identical. Identical values can stand only once. Toxic doses and inconclusive results are not listed.
System: L1210 leukemia ip in BDF1 mice, survival T/C
Test: NCI In Vivo Anticancer Drug Screen. Data for tumor model L1210 Leukemia (intraperitoneal) in B6D2F1 (BDF1) mice
Conditions: endpoint: mean survival time, higher = longer survival
In short: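 Ratio derived from survival: compound-dosed mice over vehicle-dosed mice, all bearing a transplantable tumor.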

[1] = dose: 100.0 mg/kg/injection, schedule: Q04DX003 (ip), vehicle: Klucel (hydroxypropylcellulose) (HPC)

Q: For CC(=O)C1CCCC(=O)/C=C/C(=O)O1 (centres undefined), which T/C (dose: 100.0 mg/kg/injection, schedule: Q04DX002 (ip), vehicle: Klucel (hydroxypropylcellulose) (HPC)) is on record?
A: 92 % of control

Q: What about the T/C (dose: 200.0 mg/kg/injection, schedule: Q04DX002 (ip), vehicle: Klucel (hydroxypropylcellulose) (HPC)) of the same compound?
A: 100 % of control

Q: Which T/C (dose: 100.0 mg/kg/injection, schedule: Q01DX009 (ip), vehicle: Klucel (hydroxypropylcellulose) (HPC)) does the source give for Cc1ccc(NC(=O)Oc2cccc(C(F)(F)F)c2)cc1 here?
A: 100 % of control

Q: And the T/C (dose: 200.0 mg/kg/injection, schedule: Q01DX009 (ip), vehicle: Klucel (hydroxypropylcellulose) (HPC))?
A: 98 % of control

Q: And the T/C (dose: 400.0 mg/kg/injection, schedule: Q01DX009 (ip), vehicle: Klucel (hydroxypropylcellulose) (HPC))?
A: 100 % of control

Q: For O=C(Nc1ccc(C2=NCCN2)cc1)c1ccc(C(=O)Nc2ccc(C3=NCCN3)cc2)c([N+](=O)[O-])c1, which T/C (dose: 1.0 mg/kg/injection, schedule: Q#A X Z (ip), vehicle: saline) is on record?
A: 103 % of control

Q: And the T/C (dose: 2.0 mg/kg/injection, schedule: Q01DX Z (ip), vehicle: saline)?
A: 112 % of control

Q: What about the T/C (dose: 2.5 mg/kg/injection, schedule: Q## X000 (iv), vehicle: other) of the same compound?
A: 97 % of control

Q: And the T/C (dose: 3.6 mg/kg/injection, schedule: Q01DX Z (ip), vehicle: methylcellulose (MC))?
A: 163 % of control

Q: And the T/C (dose: 4.0 mg/kg/injection, schedule: Q01DX Z (ip), vehicle: saline)?
A: 116 % of control

Q: And the T/C (dose: 4.0 mg/kg/injection, schedule: Q#A X Z (ip), vehicle: saline)?
A: 184 % of control

Q: What about the T/C (dose: 5.0 mg/kg/injection, schedule: Q## X000 (iv), vehicle: other) of the same compound?
A: 96 % of control

Q: What about the T/C (dose: 5.4 mg/kg/injection, schedule: Q01DX Z (ip), vehicle: methylcellulose (MC)) of the same compound?
A: 195 % of control

Q: And the T/C (dose: 6.0 mg/kg/injection, schedule: Q01DX004 (im), vehicle: olive oil, sesame oil, peanut oil)?
A: 97 % of control

Q: And the T/C (dose: 6.0 mg/kg/injection, schedule: Q03DX Z (ip), vehicle: saline)?
A: 115 % of control

Q: And the T/C (dose: 8.0 mg/kg/injection, schedule: Q01DX004 (im), vehicle: olive oil, sesame oil, peanut oil)?
A: 98 % of control

Q: What about the T/C (dose: 8.0 mg/kg/injection, schedule: Q01DX Z (ip), vehicle: methylcellulose (MC)) of the same compound?
A: 246 % of control

Q: And the T/C (dose: 8.0 mg/kg/injection, schedule: Q01DX Z (ip), vehicle: saline)?
A: 204 % of control

Q: What about the T/C (dose: 10.0 mg/kg/injection, schedule: Q## X000 (iv), vehicle: other) of the same compound?
A: 120 % of control

Q: What about the T/C (dose: 12.0 mg/kg/injection, schedule: Q01DX004 (im), vehicle: olive oil, sesame oil, peanut oil) of the same compound?
A: 101 % of control

Q: What about the T/C (dose: 12.0 mg/kg/injection, schedule: Q01DX Z (ip), vehicle: methylcellulose (MC)) of the same compound?
A: 204 % of control

Q: What about the T/C (dose: 12.0 mg/kg/injection, schedule: Q03DX Z (ip), vehicle: saline) of the same compound?
A: 123 % of control

Q: And the T/C (dose: 16.0 mg/kg/injection, schedule: Q01DX009 (ip), vehicle: saline)?
A: 188 % of control and 198 % of control

Q: What about the T/C (dose: 18.0 mg/kg/injection, schedule: Q01DX004 (im), vehicle: olive oil, sesame oil, peanut oil) of the same compound?
A: 104 % of control

Q: And the T/C (dose: 24.0 mg/kg/injection, schedule: Q03DX Z (ip), vehicle: saline)?
A: 188 % of control

Q: What about the T/C (dose: 28.0 mg/kg/injection, schedule: Q07DX Z (ip), vehicle: saline) of the same compound?
A: 113 % of control

Q: And the T/C (dose: 32.0 mg/kg/injection, schedule: Q01DX009 (ip), vehicle: saline)?
A: 100 % of control and 103 % of control

Q: What about the T/C (dose: 32.0 mg/kg/injection, schedule: Q01DX Z (ip), vehicle: saline) of the same compound?
A: 86 % of control

Q: And the T/C (dose: 48.0 mg/kg/injection, schedule: Q03DX Z (ip), vehicle: saline)?
A: 172 % of control

Q: And the T/C (dose: 64.0 mg/kg/injection, schedule: Q01DX Z (sc), vehicle: steriod suspending solution)?
A: 159 % of control

Q: What about the T/C (dose: 96.0 mg/kg/injection, schedule: Q03DX Z (ip), vehicle: saline) of the same compound?
A: 100 % of control

Q: What about the T/C (dose: 125.0 mg/kg/injection, schedule: Q01DX Z (sc), vehicle: steriod suspending solution) of the same compound?
A: 122 % of control

Q: And the T/C (dose: 240.0 mg/kg/injection, schedule: Q01DX Z (oral), vehicle: saline)?
A: 101 % of control

Q: For CCCCCCCCC/C=C(\CCCCCCCCCC)c1cc(C)ccc1C, which T/C (dose: 12.5 mg/kg/injection, schedule: Q04DX002 (ip), vehicle: saline with Tween-80) is on record?
A: 94 % of control

Q: With C[n+]1cccc2cc(C(=O)O)ccc21 as the compound, how does the T/C (dose: 50.0 mg/kg/injection, schedule: Q01DX009 (ip), vehicle: acetone) read?
A: 101 % of control

Q: What about the T/C (dose: 100.0 mg/kg/injection, schedule: Q01DX009 (ip), vehicle: acetone) of the same compound?
A: 97 % of control

Q: What about the T/C (dose: 200.0 mg/kg/injection, schedule: Q01DX009 (ip), vehicle: acetone) of the same compound?
A: 93 % of control

Q: For COc1ccc(C[n+]2cccc(NC(=O)COc3ccc(Cl)c(Cl)c3)c2)cc1, which T/C [1] is on record?
A: 97 % of control

Q: For Cc1ccc(NC(=O)Nc2cc(C)on2)c([N+](=O)[O-])c1, which T/C (dose: 25.0 mg/kg/injection, schedule: Q04DX003 (ip), vehicle: Klucel (hydroxypropylcellulose) (HPC)) is on record?
A: 96 % of control

Q: And the T/C (dose: 50.0 mg/kg/injection, schedule: Q04DX003 (ip), vehicle: Klucel (hydroxypropylcellulose) (HPC))?
A: 96 % of control

Q: And the T/C [1]?
A: 100 % of control and 91 % of control

Q: COc1cc2c(cc1OC)C1=[N+](CCC1)CC2 was tested. Which T/C (dose: 75.0 mg/kg/injection, schedule: Q01DX001 (ip), vehicle: saline) did it give?
A: 101 % of control

Q: And the T/C (dose: 100.0 mg/kg/injection, schedule: Q01DX001 (ip), vehicle: carboxymethylcellulose (CMC))?
A: 97 % of control

Q: And the T/C (dose: 150.0 mg/kg/injection, schedule: Q01DX001 (ip), vehicle: saline)?
A: 102 % of control

Q: What about the T/C (dose: 200.0 mg/kg/injection, schedule: Q01DX001 (ip), vehicle: carboxymethylcellulose (CMC)) of the same compound?
A: 94 % of control

Q: What about the T/C (dose: 400.0 mg/kg/injection, schedule: Q01DX001 (ip), vehicle: carboxymethylcellulose (CMC)) of the same compound?
A: 100 % of control

Q: Which results are given for CC1=NNC(c2ccco2)C1 (centres undefined)?
A: T/C (dose: 100.0 mg/kg/injection, schedule: Q01DX001 (ip), vehicle: saline): 91 % of control; T/C (dose: 200.0 mg/kg/injection, schedule: Q01DX001 (ip), vehicle: saline): 94 % of control; T/C (dose: 400.0 mg/kg/injection, schedule: Q01DX001 (ip), vehicle: saline): 100 % of control
